Results as given in patent US12410160B2 (Gilead Sciences, Inc., priority 2021, dated 2025).

What was measured:
human KHK-C = human KHK-C (Homo sapiens (Human), UniProt P50053); assay: KHK Biochemical Assay (IC50), ADP-Glo, KHK-C; details: ADP-Glo; average of at least two separate assays
In short: (§1)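 ADP-Glo luminescence measured ADP made over a 4 h room-temperature reaction of ATP plus fructose, started after 30 min compound–enzyme pre-incubation. Buffer: 50 mM Hepes pH 7.4, 140 mM KCl, 5 mM MgCl2, 0.01% Triton-X. Enzyme was His-tagged, BL21 (DE3)-expressed, Ni-NTA-purified; compounds in 1:3 DMSO dilution series.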

human KHK-A = human KHK-A (Homo sapiens (Human), UniProt P50053); assay: KHK Biochemical Assay (IC50), ADP-Glo, KHK-A; details: ADP-Glo; average of at least two separate assays
human KHK-A, sequence (P50053 other isoform, or with tags, fused parts or gaps): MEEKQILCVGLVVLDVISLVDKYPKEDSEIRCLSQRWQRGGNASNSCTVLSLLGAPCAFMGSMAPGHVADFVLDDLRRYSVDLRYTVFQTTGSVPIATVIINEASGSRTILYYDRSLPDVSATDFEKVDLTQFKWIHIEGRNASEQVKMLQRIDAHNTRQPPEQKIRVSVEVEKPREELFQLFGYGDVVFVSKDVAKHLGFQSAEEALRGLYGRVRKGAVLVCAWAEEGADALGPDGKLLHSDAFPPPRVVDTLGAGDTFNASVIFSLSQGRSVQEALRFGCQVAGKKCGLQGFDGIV
In short: as §1

human KHK-C, sequence (P50053 whole entry): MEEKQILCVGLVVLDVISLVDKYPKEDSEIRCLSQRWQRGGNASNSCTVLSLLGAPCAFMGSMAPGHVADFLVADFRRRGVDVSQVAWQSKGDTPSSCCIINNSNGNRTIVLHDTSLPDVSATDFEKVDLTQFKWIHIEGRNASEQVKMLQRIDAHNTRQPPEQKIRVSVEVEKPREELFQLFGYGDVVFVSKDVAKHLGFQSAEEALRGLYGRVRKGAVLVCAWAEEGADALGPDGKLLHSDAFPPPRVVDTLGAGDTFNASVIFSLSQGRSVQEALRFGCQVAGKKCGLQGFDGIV

IC50 (human KHK-C) | IC50 (human KHK-A) | SMILES
15.9 nM | 15.8 nM | C[C@H]1CCN1c1nc2c(c(-c3ccc(OCc4ccccc4)c(S(C)(=N)=O)c3)n1)CCC2 (stereo partly drawn) [Example 839, (2-(benzyloxy)-5-(2-((S)-2-methylazetidin-1-yl)-6,7-dihydro-5H-cyclopenta[d]pyrimidin-4-yl)phenyl)(imino)(methyl)4^6-sulfanone]
26.3 nM | 7.7 nM | COc1ccc(-c2nc(N3CC[C@@H]3C)nc3c2CCC3)cc1S(=N)(=O)C1CCOCC1 (stereo partly drawn) [Example 840, imino(2-methoxy-5-(2-((S)-2-methylazetidin-1-yl)-6,7-dihydro-5H-cyclopenta[d]pyrimidin-4-yl)phenyl)(tetrahydro-2H-pyran-4-yl)-λ^6-sulfanone]
40.5 nM | 28.1 nM | C[C@H]1CCN1c1nc2c(c(-c3ccc(C(N)=O)c(Cc4ccccc4)c3)n1)CCC2 [Example 841, (S)-2-benzyl-4-(2-(2-methylazetidin-1-yl)-6,7-dihydro-5H-cyclopenta[d]pyrimidin-4-yl)benzamide]
576 nM | 304 nM | C[C@H]1CCN1c1nc2c(c(-c3ccc(C(N)=O)c(SCc4ccccc4)c3)n1)CCC2 [Example 842, (S)-2-(benzylthio)-4-(2-(2-methylazetidin-1-yl)-6,7-dihydro-5H-cyclopenta[d]pyrimidin-4-yl)benzamide]
80.8 nM | 130 nM | C[C@H]1CCN1c1nc2c(c(-c3ccc(C(N)=O)c(C(=O)c4ccccc4)c3)n1)CCC2 [Example 843, (S)-2-benzoyl-4-(2-(2-methylazetidin-1-yl)-6,7-dihydro-5H-cyclopenta[d]pyrimidin-4-yl)benzamide]
8.5 nM | 2.5 nM | COc1ccc(-c2nc(N3CC[C@@H]3C)nc3c2CCC3)cc1S(=N)(=O)CC1COCOC1 (stereo partly drawn) [Example 844, ((1,3-dioxan-5-yl)methyl)(imino)(2-methoxy-5-(2-((S)-2-methylazetidin-1-yl)-6,7-dihydro-5H-cyclopenta[d]pyrimidin-4-yl)phenyl)-λ^6-sulfanone]
182 nM | 47 nM | COc1ccc(-c2nc(N3CC[C@@H]3C)nc3c2CCC3)cc1S(=N)(=O)c1ccc(C#N)c(Cl)c1 (stereo partly drawn) [Example 845, 2-chloro-4-(2-methoxy-5-(2-((S)-2-methylazetidin-1-yl)-6,7-dihydro-5H-cyclopenta[d]pyrimidin-4-yl)phenylsulfonimidoyl)benzonitrile]
46.1 nM | 33.6 nM | COc1ccc(-c2nc(N3CC[C@@H]3C)nc3c2CCC3)cc1S(=N)(=O)c1ccc(C#N)cc1C (stereo partly drawn) [Example 846, 4-(2-methoxy-5-(2-((S)-2-methylazetidin-1-yl)-6,7-dihydro-5H-cyclopenta[d]pyrimidin-4-yl)phenylsulfonimidoyl)-3-methylbenzonitrile]
118 nM | 200 nM | C[C@H]1CCN1c1nc2c(c(-c3cccc(S(=N)(=O)c4ccc(C#N)cc4C4CC4)c3)n1)CCC2 (stereo partly shown) [Example 847]
186 nM | 249 nM | COc1cc(S(=N)(=O)c2cccc(-c3nc(N4CC[C@@H]4C)nc4c3CCC4)c2)ccc1C#N (stereo partly drawn) [Example 848, 2-methoxy-4-(3-(2-((S)-2-methylazetidin-1-yl)-6,7-dihydro-5H-cyclopenta[d]pyrimidin-4-yl)phenylsulfonimidoyl)benzonitrile]
25.4 nM | 16.3 nM | COc1ccc(-c2nc(N3CC[C@@H]3C)nc3c2CCC3)cc1S(=N)(=O)c1ccc(C#N)cc1Cl (stereo partly drawn) [Example 849, 3-chloro-4-(2-methoxy-5-(2-((S)-2-methylazetidin-1-yl)-6,7-dihydro-5H-cyclopenta[d]pyrimidin-4-yl)phenylsulfonimidoyl)benzonitrile]
141 nM | 59.6 nM | COc1cc(S(=N)(=O)c2cc(-c3nc(N4CC[C@@H]4C)nc4c3CCC4)ccc2OC)ccc1C#N (stereo partly drawn) [Example 850, 2-methoxy-4-(2-methoxy-5-(2-((S)-2-methylazetidin-1-yl)-6,7-dihydro-5H-cyclopenta[d]pyrimidin-4-yl)phenylsulfonimidoyl)benzonitrile]
17.8 nM | 10.1 nM | COc1ccc(-c2nc(N3CC[C@@H]3C)nc3c2CCC3)cc1S(=N)(=O)c1ccc(C#N)cc1 (stereo partly drawn) [Example 851, 4-(2-methoxy-5-(2-((S)-2-methylazetidin-1-yl)-6,7-dihydro-5H-cyclopenta[d]pyrimidin-4-yl)phenylsulfonimidoyl)benzonitrile]
18.9 nM | 21.8 nM | C[C@H]1CCN1c1nc2c(c(-c3ccc4[nH]cnc4c3)n1)CCC2 [Example 852, (S)-5-(2-(2-methylazetidin-1-yl)-6,7-dihydro-5H-cyclopenta[d]pyrimidin-4-yl)-1H-benzo[d]imidazole]
35.3 nM | 73.2 nM | C[C@H]1CCN1c1nc2c(c(-c3ccc4ncn(C)c4c3)n1)CCC2 [Example 853, (S)-1-methyl-6-(2-(2-methylazetidin-1-yl)-6,7-dihydro-5H-cyclopenta[d]pyrimidin-4-yl)-1H-benzo[d]imidazole]
442 nM | 543 nM | C[C@H]1CCN1c1nc2c(c(-c3ccc4c(c3)CCCCC4NS(C)(=O)=O)n1)CCC2 (stereo partly drawn) [Example 854, N-(2-(2-((S)-2-methylazetidin-1-yl)-6,7-dihydro-5H-cyclopenta[d]pyrimidin-4-yl)-6,7,8,9-tetrahydro-5H-benzo[7]annulen-5-yl)methanesulfonamide]
80.5 nM | 84.9 nM | C[C@H]1CCN1c1nc2c(c(-c3ccc4c(c3)NC(=O)CNC4)n1)CCC2 [Example 855, (S)-8-(2-(2-methylazetidin-1-yl)-6,7-dihydro-5H-cyclopenta[d]pyrimidin-4-yl)-1,3,4,5-tetrahydro-2H-benzo[e][1,4]diazepin-2-one]
175 nM | 143 nM | C[C@H]1CCN1c1nc2c(c(-c3ccc4c(c3)N(C)C(=O)CNC4)n1)CCC2 [Example 856, (S)-1-methyl-8-(2-(2-methylazetidin-1-yl)-6,7-dihydro-5H-cyclopenta[d]pyrimidin-4-yl)-1,3,4,5-tetrahydro-2H-benzo[e][1,4]diazepin-2-one]
149 nM | 141 nM | C[C@H]1CCN1c1nc2c(c(-c3nc4ccc(C(N)=O)cc4s3)n1)CCC2 [Example 857, (S)-2-(2-(2-methylazetidin-1-yl)-6,7-dihydro-5H-cyclopenta[d]pyrimidin-4-yl)benzo[d]thiazole-6-carboxamide]
43.6 nM | 18 nM | C[C@H]1CCN1c1nc2c(c(-c3ccc4c(=O)[nH]c(=O)n(C)c4c3)n1)CCC2 [Example 858, (S)-1-methyl-7-(2-(2-methylazetidin-1-yl)-6,7-dihydro-5H-cyclopenta[d]pyrimidin-4-yl)quinazoline-2,4(1H,3H)-dione]
301 nM | 434 nM | C[C@H]1CCN1c1nc2c(c(-c3ccc4c(c3)CCNC4C(F)(F)F)n1)CCC2 (stereo partly drawn) [Example 859, 6-(2-((S)-2-methylazetidin-1-yl)-6,7-dihydro-5H-cyclopenta[d]pyrimidin-4-yl)-1-(trifluoromethyl)-1,2,3,4-tetrahydroisoquinoline]
224 nM | 191 nM | C[C@H]1CCN1c1nc2c(c(-c3cccc(S(C)(=N)=O)n3)n1)CCC2 (stereo partly drawn) [Example 860, imino(methyl)(6-(2-((S)-2-methylazetidin-1-yl)-6,7-dihydro-5H-cyclopenta[d]pyrimidin-4-yl)pyridin-2-yl)-λ^6-sulfanone]
15.2 nM | 4.9 nM | CCS(=N)(=O)c1cc(-c2nc(N3CC[C@@H]3C)nc3c2CCC3)ccc1OC (stereo partly drawn) [Example 861, ethyl(imino)(2-methoxy-5-(2-((S)-2-methylazetidin-1-yl)-6,7-dihydro-5H-cyclopenta[d]pyrimidin-4-yl)phenyl)-λ^6-sulfanone]
76.4 nM | 48.1 nM | COc1cc(-c2nc(N3CC[C@@H]3C)nc3c2CCC3)ccc1CS(N)(=O)=O [Example 862, (S)-(2-methoxy-4-(2-(2-methylazetidin-1-yl)-6,7-dihydro-5H-cyclopenta[d]pyrimidin-4-yl)phenyl)methanesulfonamide]
> 1000 nM | > 1000 nM | C[C@H]1CCN1c1nc2c(c(-c3cccc(Sc4ccc(C#N)cc4)c3)n1)CCC2 [Example 863, (S)-4-((3-(2-(2-methylazetidin-1-yl)-6,7-dihydro-5H-cyclopenta[d]pyrimidin-4-yl)phenyl)thio)benzonitrile]
6.3 nM | 10 nM | CCc1cc(-c2nc(N3CC[C@@H]3C)nc3c2CCC3)ccc1C1(N)COC1 [Example 864, (S)-3-(2-ethyl-4-(2-(2-methylazetidin-1-yl)-6,7-dihydro-5H-cyclopenta[d]pyrimidin-4-yl)phenyl)oxetan-3-amine]
17.3 nM | 25.4 nM | C[C@H]1CCN1c1nc2c(c(-c3ccc4c(c3)C3(CCC3)CNC4=O)n1)CCC2 [Example 865, (S)-6′-(2-(2-methylazetidin-1-yl)-6,7-dihydro-5H-cyclopenta[d]pyrimidin-4-yl)-2′,3′-dihydro-1′H-spiro[cyclobutane-1,4′-isoquinolin]-1′-one]
27.7 nM | 18.9 nM | C[C@H]1CCN1c1nc2c(c(-c3cc4c(s3)C(=O)NC(C)(C)N4)n1)CCC2 [Example 866, (S)-2,2-dimethyl-6-(2-(2-methylazetidin-1-yl)-6,7-dihydro-5H-cyclopenta[d]pyrimidin-4-yl)-2,3-dihydrothieno[3,2-d]pyrimidin-4(1H)-one]
> 1000 nM | > 1000 nM | C[C@H]1CCN1c1nc2c(c(-c3cc4c(N)n[nH]c4cn3)n1)CCC2 [Example 867, (S)-5-(2-(2-methylazetidin-1-yl)-6,7-dihydro-5H-cyclopenta[d]pyrimidin-4-yl)-1H-pyrazolo[3,4-c]pyridin-3-amine]
